# Source: patent US20120190564A1, “IDENTIFICATION OF PROTEIN BINDING SITES” (priority 2000, published 2012)
# Ends that are not written are not given here. * marks the point of attachment. code + = amino-terminal bromo-group; nBu = CCCC*
# Tested on: anti-hTNF mAb 210
# Experiment: Loop-loop 15-mer Matrix-scan of hTNF loop-peptides with mAb 210
# Assay type: binding
# Conditions: mAb 210 10 ug/ml
# Description: FIG. 11: Partial listing of peptides synthesized for loop-loop 15-mer Matrix-scan (1. +AVRSSSRTPSDKPVZ (SEQ ID NO: 3); 2. +VRSSSRTPSDKPVAZ (SEQ ID NO: 4); 3. +RSSSRTPSDKPVAHZ (SEQ ID NO: 5); 4. +SSSRTPSDKPVAHVZ (SEQ ID NO: 6); 5. +SSRTPSDKPVAHVVZ (SEQ ID NO: 7); 145. +FAESGQVYFGIIALZ (SEQ ID NO: 8)). All overlapping 15-mer loop-peptides covering the linear sequence of human tumor necrosis factor (hTNF) were synthesized, i.e., 145 hTNF loop-peptides in total. Z is a Cys-butyl. The amino terminus of all peptides contain a bromo-group (+).
# FIG. 12: Configuration of the loop-loop 15-mer Matrix-scan. Schematic representation of matrix-scan with two loop segments. On the polymer surface, a mixture of cys (mmt) and cys (trt) are coupled. After 1% TFA, the cys (mmt) is deprotected. Then, in each square, one peptide is coupled via its N-terminal Bromo-group (+). Thus, peptide-1 in square-1, peptide-2 in square-2, etc., until peptide-145 in square-145. Then, the cys(trt) is deprotected with 95% TFA. Then, in each square, 145 different peptides are spotted simultaneously. Thus, peptide-1 to 145 in square-1, peptide 1-145 in square-2, etc., to peptide-1 to peptide-145 in square-145. Some extra squares were used for controls (linear epitopes).
# FIG. 13: Result of the loop-loop 15-mer Matrix-scan with anti-hTNF mAb 210 (10 ug/ml). The result obtained with all 145 squares is plotted. […] On top of these and other squares spots are labeled as well (spots represent first peptide coupled next to second loop peptide). Identified squares and spots: Sq-65: +FKGQGCPSTHVLLTZ (SEQ ID NO: 9); Sq-66: +KGQGCPSTHVLLTHZ (SEQ ID NO: 10); Sq-67: +GQGCPSTHVLLTHTZ (SEQ ID NO: 11); Sq-87: +SYQTKVNLLSAIKSZ (SEQ ID NO: 12); Sq-88: +YQTKVNLLSAIKSPZ (SEQ ID NO: 13); Sq-94: +LLSAIKSPCQRETPZ (SEQ ID NO: 14); Sq-95: +LSAIKSPCQRETPEZ (SEQ ID NO: 15); Sq-127: +LEKGDRLSAEINRPZ (SEQ ID NO: 16); Sq-128: +EKGDRLSAEINRPDZ (SEQ ID NO: 17); Peptide-65: +FKGQGCPSTHVLLTZ (SEQ ID NO: 18); Peptide-70: +CPSTHVLLTHTISRZ (SEQ ID NO: 19); Peptide-72: +STHVLLTHTISRIAZ (SEQ ID NO: 20); Peptide-77: +LTHTISRIAVSYQTZ (SEQ ID NO: 21); Peptide-94: +LLSAIKSPCQRETPZ (SEQ ID NO: 22); Peptide-95: +LSAIKSPCQRETPEZ (SEQ ID NO: 23); Peptide-99: +KSPCQRETPEGAEAZ (SEQ ID NO: 24); Peptide-126: +QLEKGDRLSAEINRZ (SEQ ID NO: 25); Peptide-129: +KGDRLSAEINRPDYZ (SEQ ID NO: 26). The y-axis is in arbitrary units.
# FIG. 14: Result of the loop-loop 15-mer Matrix-scan with mAb 210 (10 ug/m) with details of squares 65 and 127. Combination of loop-peptide 65 with loop-peptides 94, 95, combinations of loop-peptide 65 with 126-127, combinations of loop-peptide 127 with loop-peptides 65-77 and combinations of loop-peptide 127 with loop-peptides 94-96 are labeled. The y-axis is in arbitrary units.
# The monoclonal antibody mAb-210 raised against hTNF was tested on linear and loop peptides (mAb-210 was bought from R&D Systems, MAB210, clone 1825.12, through ITK Diagnostics Uithoorn, The Netherlands). Firstly, it was tested in Pepscan on all overlapping linear 12-mers covering hTNF. […] Secondly, it was tested in Pepscan matrix-scan on double 15-mer loop-loop peptides (as described in FIGS. 3 and 4 and explained through FIGS. 11-12). Two loop-regions were labeled: peptide sequence GQGCPSTHVLLT (SEQ ID NO: 65) (squares 65 to 67) and SAIKSPCQRE (SEQ ID NO: 28) (squares 92 to 96) (FIGS. 13, 14). In addition in various squares loop peptide spots were identified corresponding to sequence GQGCPSTHVLLT (SEQ ID NO: 65) (spots 65-67); SAIKSPCQRE (SEQ ID NO: 28) (spots 92-96) and KGDRLSAEINR (SEQ ID NO: 29) (spots 126-129) (FIG. 14). These three regions, illustrated in FIG. 15 on the three-dimensional model of hTNF, are located on one side of the hTNF molecule and form one large discontinuous epitope region.
Substance,labeling of squares (firstly coupled loop-peptides),labeling of spots (first peptide coupled next to second loop peptide)
"+EKGDRLSAEINRPDZ ({code +}-EKGDRLSAEINRPDX; not fully specified (residue 15); printed as +EKGDRLSAEINRPDZ; also: N- and C-terminal linker/cyclisation residues) [Sq-128, 15-mer hTNF loop-peptide]",Identified,
"+KGDRLSAEINRPDYZ ({code +}-KGDRLSAEINRPDYC(nBu)) [Peptide-129, 15-mer hTNF loop-peptide]",,Identified
"+CPSTHVLLTHTISRZ ({code +}-CPSTHVLLTHTISRC(nBu)) [Peptide-70, 15-mer hTNF loop-peptide]",,Identified
GQGCPSTHVLLT (Human),labeled,identified
"+YQTKVNLLSAIKSPZ ({code +}-YQTKVNLLSAIKSPX; not fully specified (residue 15); printed as +YQTKVNLLSAIKSPZ; also: N- and C-terminal linker/cyclisation residues) [Sq-88, 15-mer hTNF loop-peptide]",Identified,
"+STHVLLTHTISRIAZ ({code +}-STHVLLTHTISRIAC(nBu)) [Peptide-72, 15-mer hTNF loop-peptide]",,Identified
"+SYQTKVNLLSAIKSZ ({code +}-SYQTKVNLLSAIKSX; not fully specified (residue 15); printed as +SYQTKVNLLSAIKSZ; also: N- and C-terminal linker/cyclisation residues) [Sq-87, 15-mer hTNF loop-peptide]",Identified,
"+LTHTISRIAVSYQTZ ({code +}-LTHTISRIAVSYQTX; not fully specified (residue 15); printed as +LTHTISRIAVSYQTZ; also: N- and C-terminal linker/cyclisation residues) [Peptide-77, 15-mer hTNF loop-peptide]",,Identified
"+KGQGCPSTHVLLTHZ ({code +}-KGQGCPSTHVLLTHX; not fully specified (residue 15); printed as +KGQGCPSTHVLLTHZ; also: N- and C-terminal linker/cyclisation residues) [Sq-66, 15-mer hTNF loop-peptide]",clearly labeled,
"+QLEKGDRLSAEINRZ ({code +}-QLEKGDRLSAEINRC(nBu)) [Peptide-126, 15-mer hTNF loop-peptide]",,Identified
"+FKGQGCPSTHVLLTZ ({code +}-FKGQGCPSTHVLLTC(nBu)) [Peptide-65, 15-mer hTNF loop-peptide]",Identified,Identified
"+LLSAIKSPCQRETPZ ({code +}-LLSAIKSPCQRETPC(nBu)) [Peptide-94, 15-mer hTNF loop-peptide]",Identified,Identified
"+LSAIKSPCQRETPEZ ({code +}-LSAIKSPCQRETPEC(nBu)) [Peptide-95, 15-mer hTNF loop-peptide]",Identified,Identified
GQGCPSTHVLLTHTIS (Human),,identified
"+GQGCPSTHVLLTHTZ ({code +}-GQGCPSTHVLLTHTX; not fully specified (residue 15); printed as +GQGCPSTHVLLTHTZ; also: N- and C-terminal linker/cyclisation residues) [Sq-67, 15-mer hTNF loop-peptide]",clearly labeled,
SAIKSPCQRE (Human),labeled,identified
"+LEKGDRLSAEINRPZ ({code +}-LEKGDRLSAEINRPX; not fully specified (residue 15); printed as +LEKGDRLSAEINRPZ; also: N- and C-terminal linker/cyclisation residues) [Sq-127, 15-mer hTNF loop-peptide]",Identified,
"+KSPCQRETPEGAEAZ ({code +}-KSPCQRETPEGAEAX; not fully specified (residue 15); printed as +KSPCQRETPEGAEAZ; also: N- and C-terminal linker/cyclisation residues) [Peptide-99, 15-mer hTNF loop-peptide]",,Identified
KGDRLSAEINR (Human),,identified
